# From patent US7989441B2, “Organic compounds” (Novartis AG, priority 2005, dated 2011)
# Residues, ends and D or L forms follow the SMILES beside them.
# What was measured:
# [1] = molecular target: T1, GST-BIR3 fusion containing amino acids 259-364 from CIAP1 (Homo sapiens, UniProt Q13490); assay: CIAP1 BIR3 Smac Elisa; type: binding; conditions: concentration which displaces half of GST-BIR3 signal, IAP not given
# T1 construct: a GST-BIR3 fusion containing amino acids 259-364 from CIAP1 was used
# T1 sequence (Q13490 259-364): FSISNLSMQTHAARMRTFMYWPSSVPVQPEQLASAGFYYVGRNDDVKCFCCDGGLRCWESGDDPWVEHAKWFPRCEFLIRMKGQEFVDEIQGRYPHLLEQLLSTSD
# Description: (§1) In order to measure the ability of the inventive compounds to bind the BIR3 peptide binding pocket, a solution phase assay on the FMAT or ELISA technology platform is utilized.
# (§2) Compounds are incubated with GST-BIR3 fusion protein and biotinylated SMAC peptide (AVPFAQK) in stretavidin-coated 96-well plates. For XIAP BIR3 Smac Elisa, a GST-BIR3 fusion containing amino acids 248-358 from XIAP was used. For CIAP1 BIR3 Smac Elisa, a GST-BIR3 fusion containing amino acids 259-364 from CIAP1 was used. Following a 30-minute incubation, wells are extensively washed. The remaining GST-BIR3 fusion protein is monitored by ELISA assay involving first, incubation with goat anti-GST antibodies followed by washing and incubation with alkaline phosphatase conjugated anti-goat antibodies. Signal is amplified using Attophos (Promega) and read with Cytoflour Ex 450 nm/40 and Em 580 nm. IC50s correspond to concentration of compound which displaces half of GST-BIR3 signal. The IC50 for non-biotinylated Smac is 400 nM.
# [2] = test system: GST-BIR3 fusion protein (BIR3 peptide binding pocket); assay: FMAT solution phase assay: competition of GST-BIR3 off Smac peptide beads
# Description: as §1
# Biotinylated Smac 7-mer peptide (AVPIAQK, lysine ε-amino group is biotinylated) is immobilized on streptavidin coated beads. GST-BIR3 fusion protein is precipitated with FMAT beads and is detected using fluorescent tagged anti-GST antibodies. […] The IC50 for non-biotinylated Smac is 400 nM.
# [3] = molecular target: T2, GST-BIR3 fusion containing amino acids 248-358 from XIAP (Homo sapiens, UniProt P98170); assay: XIAP BIR3 Smac Elisa; type: binding; conditions: concentration which displaces half of GST-BIR3 signal, IAP not given
# T2 construct: a GST-BIR3 fusion containing amino acids 248-358 from XIAP was used
# T2 sequence (P98170 248-358): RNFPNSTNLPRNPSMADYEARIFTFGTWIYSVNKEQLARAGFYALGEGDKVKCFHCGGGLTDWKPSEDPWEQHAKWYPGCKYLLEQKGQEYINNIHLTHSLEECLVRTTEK
# Description: as §1, §2
smiles,measurement,setting,value
CC[C@H](C)[C@H](NC(=O)[C@@H]1CCCN1C(=O)[C@@H](NC(=O)[C@H](C)N)C(C)C)C(=O)N[C@@H](C)C(=O)N[C@@H](CCC(N)=O)C(=O)N[C@@H](CCCCN)C(=O)O [non-biotinylated Smac] (H-AVPIAQK-OH; N-terminus and C-terminus assumed),IC50,[1],400 nM
same,competing GST-BIR3 off the FMAT beads,[2]; FIG. 2,highly effective
same,IC50,"[2]; FMAT, displacement of GST-BIR3 from biotinylated Smac 7-mer peptide (AVPIAQK) beads",400 nM
same,IC50,[3],400 nM
